Drawing on PubChem BioAssay (NCI), this text covers GI50 and TGI for 32 molecules.

What all share (test): NCI-60 cell line screen, 48 h
For assay [1], the system named is T-47D breast.
The subject of assay [2] is DMS 114 small cell lung.
In assay [3] the test system is KM20L2 colon.
Assay [4] has as its system HOP-18 NSCLC.
For assay [5], the system named is SNB-78 CNS.
The subject of assay [6] is LXFL 529 NSCLC.
For assay [7], the system named is XF 498 CNS.
Assay [8] relates to RXF-631 renal.
Assay [9] relates to MDA-N.

Molecules are shown by their SMILES.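 Exposure lasted 48 hours, with cells grown in 96-well plates and compounds tested at five concentrations. Abbreviation: GI50, concentration required for 50% inhibition of growth. TGI is the concentration that stops growth completely.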 A value given as a limit tells only on which side of the number the result lay.

In the case of `CC(C)(C)c1ccc(C2CC(=O)C3=C(C2)Nc2ccccc2N(C(=O)c2ccccc2Cl)C3c2ccc(F)cc2)cc1` (stereo not drawn), in [1], the GI50 was 5.57 µM and the TGI is more than 100 µM.
On the same counts, the results for `COc1ccc(Nc2ncnc3ccc(-c4cncc(NS(C)(=O)=O)c4)cc23)cc1Cl` are 0.177 µM and 1.61 µM.
As to `CCCCNS(=O)(=O)c1ccc(-c2ccc3c(c2)-c2ccc(S(=O)(=O)NCCCC)cc2S3(=O)=O)cc1`, the TGI in assay [2] was more than 100 µM; in assay [3] it was 15.1 µM; in [4], 54 µM; in assay [5], 33.4 µM; in assay [6] it was 33.9 µM; in [7], 23.9 µM.
Take `Cc1c(Nc2nccc3cc(CN4CC[C@@H](O)C4)cnc23)cccc1-c1cccc(-c2nc3cc(CN4CC[C@@H](C(=O)O)C4)cc(C#N)c3o2)c1C`: in assay [1], the GI50 is more than 100 µM and the TGI was more than 100 µM.
On to `CN1CCN(C(=O)c2ccc(NC(=O)Nc3ccc(-c4nc(N5CCOCC5)c5cccn5n4)cc3)cc2)CC1`, for which, in assay [1], the GI50 is 0.0126 µM and the TGI turned out to be 0.0567 µM.
Regarding `CCOC(=O)[C@@]12C(C)=CC(=O)O[C@]1(C)C1C(=O)NC(=O)C12` (stereo partly drawn), the TGI in assay [2], in [3], in assay [4], in assay [5], in assay [6] and in assay [8] was more than 100 µM in each case.
Regarding `NC1=NC(SCc2ccccc2CCl)c2ncn(Cc3ccccc3CCl)c2N1` (stereo not drawn), in assay [1], the GI50 was 1.54 µM and the TGI was found to be 3.34 µM.
Taken in the same sequence, the figures for `CCN1CCN(c2cc(C(=O)Nc3cccc(Nc4ccc5c(OC)cccc5n4)c3)cc(C(F)(F)F)c2)CC1` were 2.05 µM and 11.7 µM.
Taken in the same sequence, the figures for `Nc1c(C(=O)c2cccc(C(O)CO)c2)cnn1-c1ccc(F)cc1` (stereo not drawn) were more than 25 µM and more than 25 µM.
Consider `COC(=O)CC1(O)C=CC(=O)C=C1`, for which the figures for the TGI in assay [9] and in assay [1] were 20.9 µM and 25.7 µM, respectively.
`OCCCCC#Cc1ccccc1C#Cc1cccnc1`: in [1], the GI50 was 34.7 µM and the TGI was more than 100 µM.
Taken in the same sequence, the figures for `Nc1nc(Cl)nc2c1ncn2C1OC(CO)C(O)C1F` (stereo not drawn) were 10.1 µM and more than 100 µM.
Taken in the same sequence, the figures for `FC(F)c1ncc(-c2ccc(C(F)(F)F)cc2)c(NC2CCCCCC2)n1` were more than 10 µM and more than 10 µM.
As for `CCCCCCCC(=O)[O-].CCCCCCCC(=O)[O-].N.N.N.N.[Co+3].[O-][Cl+3]([O-])([O-])[O-]`, the results for the GI50 in assay [4] and in assay [5] were 54.8 µM and more than 100 µM, respectively. Also, the TGI in [4] and in assay [5] was more than 100 µM each time.
Regarding `CN1CCN(Cc2ccc(NC(=O)c3[nH]ncc3Nc3ncnc4[nH]ccc34)cc2)CC1`, in assay [1], the GI50 is 0.365 µM and the TGI came out at 18.7 µM.
Molecule `CCc1ccc2oc(=O)ccc2c1` showed a TGI in assay [9] of more than 100 µM.
As for `Cc1cc(=O)[nH]c(N/N=C/c2ccccc2O)n1`, in [1], the GI50 was 3.74 µM and the TGI is more than 100 µM.
As to `CC12CCC(=O)C(O1)C1C(=O)c3ccc4c(ccc5ccccc54)c3C(=O)C12` (stereo not drawn), in assay [1], the GI50 was 2.26 µM and the TGI was more than 28.5 µM.
Turning to `O=C1OC(=O)C23CSCC12C1C=CC3O1` (stereo not drawn), the TGI in [2], in assay [3], in assay [6] and in [7] was more than 100 µM throughout.
For the molecule `CC(=O)OCC1OC(n2c(=O)[nH]c(=O)c3n[nH]nc32)C(OC(C)=O)C(OC(C)=O)C1OC(C)=O` (stereo not drawn), the TGI in [2], in assay [3], in assay [4], in assay [6] and in assay [7] was more than 100 µM in each case.
Turning to `COc1cc(C)cc(C(=O)/C=C/c2ccccc2)c1O`, the TGI came to 55.2 µM in assay [9] and 44.6 µM in assay [1].
`COc1cc(Cc2c(C)cc(OC)c3[nH]c4ccccc4c23)cc2c1[nH]c1ccccc12`: the TGI in assay [2] was more than 25 µM; in assay [3], 10.8 µM; in assay [5], 17 µM; in assay [6] it was 22.4 µM; in assay [7], more than 25 µM. Also, the GI50 was 5.28 µM in [3], 4.13 µM in assay [6] and 6.03 µM in assay [7].
Turning to `CN1CCN(CCCOc2ccc3nc(Nc4ccc(F)c(F)c4)ccc3c2)CC1`, in [1], the GI50 was 1.88 µM and the TGI was 8.79 µM.
Taken in the same sequence, the figures for `Fc1ccc2c(c1)C1=C(CCC2)C(c2ccc(Cl)cc2)NC(=S)N1` (stereo not drawn) were 54.4 µM and more than 100 µM.
As to `CC(=O)c1c[nH]c2ccc(-c3ccnc(Nc4ccc(NC(=O)C5CCCC5)c(CN5CCOCC5)c4)n3)cc12`, the GI50 in assay [1] was 0.0379 µM.
`O=C1NC(=O)C(=Cc2cn(Cc3ccccc3)c3ccccc23)C(=O)N1`: in assay [1], the GI50 was 4.09 µM and the TGI was determined as 20 µM.
As for `COc1ccc(N2C(=O)[C@@H](N=[N+]=[N-])[C@@H]2[C@H]2COC(C)(C)O2)cc1`, the TGI in [2], in assay [3], in assay [4], in [5] and in [6] was more than 100 µM each time.
As for `CCC(C)(O)c1cn(-c2ccc(Cl)cc2)nn1` (stereo not drawn), the TGI in assay [3], in assay [4], in assay [5] and in [6] was more than 100 µM in each case.
`CN(C)CCN1C(=O)c2cccc3c(/C=C/CN4C(=O)c5cccc6cccc(c56)C4=O)ccc(c23)C1=O`: in assay [1], the GI50 is more than 100 µM and the TGI was more than 100 µM.
For `C1CSC[C@H]2COC[C@@H](CSCCS1)S2`, the TGI in [9] and in assay [1] was more than 100 µM each time.
Turning to `COC1=C(OC)C(=O)C(C/C=C(\C)CC/C=C(\C)CC/C=C(\C)CC/C=C(\C)CC/C=C(\C)CC/C=C(\C)CC/C=C(\C)CC/C=C(\C)CC/C=C(\C)CCC=C(C)C)=C(C)C1=O`, in assay [1], the GI50 was more than 100 µM and the TGI was more than 100 µM.
In the case of `COc1ccc2nc(C)cc(Sc3nc4ccccc4s3)c2c1`, in assay [1], the GI50 is 0.881 µM and the TGI was determined as 11 µM.
